Data set [1] is described as follows: Cytotoxicity against mouse Neuro2a cells assessed as inhibition of cell growth incubated for 24 hrs by MTT assay. The class given is toxicity, cell-based, N2a. (In general: Tetrazolium assays rely on reduction of a dye to a coloured formazan, in cell work by metabolically active cells.)
For data set [2], the system named is N2a. Nature of the data set: Induction of neurite outgrowth in mouse Neuro2a cells assessed as increase in percentage of neurite-bearing cells at 25 uM incubated for 24 hrs. The data set is classed as functional, cell-based.
Data set [3] concerns N2a. Nature of the data set: Induction of neurite outgrowth in mouse Neuro2a cells assessed as increase in neurite-length per cells at 25 uM incubated for 24 hrs. The class given is functional, cell-based.
For data set [4], the system named is N2a. Briefly: Induction of neurite outgrowth in mouse Neuro2a cells assessed as increase in neurite-number per cells at 25 uM incubated for 24 hrs. The class given is functional, cell-based.
The test system of data set [5] is N2a. Nature of the data set: Induction of neurite outgrowth in mouse Neuro2a cells assessed as increase in GAP43 protein expression at 25 uM incubated for 24 hrs by immunoblotting analysis. The class given is functional, cell-based. Background: Immunoblotting shows a protein as a band on a membrane.

Molecules are shown by their SMILES. Activity calls are given as the source filed them. The rule behind the calls is not given here.

By IC50 is commonly meant the concentration that gives 50% inhibition.

In the case of `CCCC/C=C\CCCCCCCC(=O)N[C@@H](CO[C@@H]1O[C@H](CO)[C@@H](O[C@@H]2O[C@H](CO)[C@H](O[C@@H]3O[C@H](CO)[C@H](O)[C@H](O[C@@H]4O[C@H](CO)[C@H](O)[C@H](O)[C@H]4O)[C@H]3NC(C)=O)[C@H](O[C@]3(C(=O)O)C[C@H](O)[C@@H](NC(C)=O)[C@@H]([C@@H](O)[C@H](O)CO)O3)[C@H]2O)[C@H](O)[C@H]1O)[C@H](O)/C=C/CCCCCCCCCCCCC`, the IC50 at 24 h in data set [1] is less than 25 µM.

Take `CCCCCC/C=C\CCCC(=O)N[C@@H](CO[C@@H]1O[C@H](CO)[C@@H](O[C@@H]2O[C@H](CO)[C@H](O[C@@H]3O[C@H](CO)[C@H](O)[C@H](O[C@@H]4O[C@H](CO)[C@H](O)[C@H](O)[C@H]4O)[C@H]3NC(C)=O)[C@H](O[C@]3(C(=O)O)C[C@H](O)[C@@H](NC(C)=O)[C@@H]([C@@H](O)[C@H](O)CO)O3)[C@H]2O)[C@H](O)[C@H]1O)[C@H](O)/C=C/CCCCCCCCCCCCC`: the IC50 at 24 h in data set [1] is less than 25 µM.

Take `CCCCCC/C=C\CCCCCCCC(=O)N[C@@H](CO[C@@H]1O[C@H](CO)[C@@H](O[C@@H]2O[C@H](CO)[C@H](O[C@@H]3O[C@H](CO)[C@H](O)[C@H](O[C@@H]4O[C@H](CO)[C@H](O)[C@H](O)[C@H]4O)[C@H]3NC(C)=O)[C@H](O[C@]3(C(=O)O)C[C@H](O)[C@@H](NC(C)=O)[C@@H]([C@@H](O)[C@H](O)CO)O3)[C@H]2O)[C@H](O)[C@H]1O)[C@H](O)/C=C/CCCCCCCCCCCCC`: the result in the data set with N2a [2], with N2a [3] and in the data set with N2a [4] was Active.

As for `CCCCCC/C=C\CCCCCCCC(=O)N[C@@H](CO[C@@H]1O[C@H](CO)[C@@H](O[C@@H]2O[C@H](CO)[C@H](O[C@@H]3O[C@H](CO)[C@H](O)[C@H](O[C@@H]4O[C@H](CO)[C@H](O)[C@H](O)[C@H]4O)[C@H]3NC(C)=O)[C@H](O[C@]3(C(=O)O)C[C@H](O)[C@@H](NC(C)=O)[C@@H]([C@@H](O)[C@H](O)CO)O3)[C@H]2O)[C@H](O)[C@H]1O)[C@H](O)/C=C/CCCCCCCCCCCCCCC`, the outcome in the data set with N2a [2], with N2a [3] and in the data set with N2a [4] was Active. Moreover, the IC50 at 24 h in data set [1] is greater than 200 µM.

Turning to `CCCCCCCC/C=C\CCCCCCCC(=O)N[C@@H](CO[C@@H]1O[C@H](CO)[C@@H](O[C@@H]2O[C@H](CO)[C@H](O[C@@H]3O[C@H](CO)[C@H](O)[C@H](O[C@@H]4O[C@H](CO)[C@H](O)[C@H](O)[C@H]4O)[C@H]3NC(C)=O)[C@H](O[C@]3(C(=O)O)C[C@H](O)[C@@H](NC(C)=O)[C@@H]([C@@H](O)[C@H](O)CO)O3)[C@H]2O)[C@H](O)[C@H]1O)[C@H](O)/C=C/CCCCCCCCCCCCC`, the outcome in the data set on N2a [5], in the data set on N2a [2], with N2a [3] and in the data set with N2a [4] was Active. Besides, the half-inhibitory concentration (IC50) at 24 h in data set [1] was greater than 200 µM.

In the case of `CCCCCCCC/C=C/CCCCCCCC(=O)N[C@@H](CO[C@@H]1O[C@H](CO)[C@@H](O[C@@H]2O[C@H](CO)[C@H](O[C@@H]3O[C@H](CO)[C@H](O)[C@H](O[C@@H]4O[C@H](CO)[C@H](O)[C@H](O)[C@H]4O)[C@H]3NC(C)=O)[C@H](O[C@]3(C(=O)O)C[C@H](O)[C@@H](NC(C)=O)[C@@H]([C@@H](O)[C@H](O)CO)O3)[C@H]2O)[C@H](O)[C@H]1O)[C@H](O)/C=C/CCCCCCCCCCCCCCC`, the result in the data set with N2a [5] was Active. The concentration for half-maximal inhibition (IC50) at 24 h in data set [1] was greater than 200 µM.

For the compound `CCCCCCCCCCCCCCC/C=C/[C@@H](O)[C@H](CO[C@@H]1O[C@H](CO)[C@@H](O[C@@H]2O[C@H](CO)[C@H](O[C@@H]3O[C@H](CO)[C@H](O)[C@H](O[C@@H]4O[C@H](CO)[C@H](O)[C@H](O)[C@H]4O)[C@H]3NC(C)=O)[C@H](O[C@]3(C(=O)O)C[C@H](O)[C@@H](NC(C)=O)[C@@H]([C@@H](O)[C@H](O)CO)O3)[C@H]2O)[C@H](O)[C@H]1O)NC(=O)CCCCCCCCCCCCCCCCC`, in data set [1], the IC50 at 24 h was greater than 200 µM.

Source of the values: ChEMBL document CHEMBL5108016, “Design, synthesis and neurite outgrowth activity of novel ganglioside GM1 derivatives by remodeling of the fatty acid moiety” (Eur J Med Chem, 2022).
